Results as given in BindingDB's records for doi:10.1021/jm970569j (Seoul National University, 1998).

target: Platelet-activating factor receptor (Oryctolagus cuniculus); assay: In vitro inhibitory activity against PAF receptor using [3H]PAF as radioligand in rabbit platelets

Q: For `C=C1CCC2[C@@](C)(CO)CCC[C@]2(C)[C@H]1CCC1=CCOC1=O` (stereo partly drawn) [3-[2-((1S,5S,8aR)-5-Hydroxymethyl-5,8a-dimethyl-2-methylene-decahydro-naphthalen-1-yl)-ethyl]-5H-furan-2-one], which IC50 is on record?
A: 30 µM

Q: Which IC50 does the source give for `C=C1CCC2[C@@](C)(COC)CCC[C@]2(C)[C@H]1CCC1=CCOC1=O` (stereo partly drawn) [3-[2-((1S,5S,8aR)-5-Methoxymethyl-5,8a-dimethyl-2-methylene-decahydro-naphthalen-1-yl)-ethyl]-5H-furan-2-one] here?
A: 1.7 µM

Q: `C=C1CCC2[C@@](C)(CO)CCC[C@]2(C)[C@H]1CCC1=CC(=O)OC1` (stereo partly drawn) [4-[2-((1S,5S,8aR)-5-Hydroxymethyl-5,8a-dimethyl-2-methylene-decahydro-naphthalen-1-yl)-ethyl]-5H-furan-2-one] was tested. Which IC50 did it give?
A: 110 µM

Q: Which IC50 does the source give for `COC(=O)[C@@]1(C)CCC[C@@]2(C)C1CCC(C)[C@@H]2CCC1CCOC1=O` (stereo partly drawn) [(1S,4aR,5S)-1,4a,6-Trimethyl-5-[2-(2-oxo-tetrahydro-furan-3-yl)-ethyl]-decahydro-naphthalene-1-carboxylic acid methyl ester] here?
A: 4.8 µM

Q: With `C=C1CCC2[C@](C)(CCC[C@]2(C)C(=O)OC)[C@H]1CCC1=CCOC1=O` (stereo partly drawn) [(1S,4aR,5S)-1,4a-Dimethyl-6-methylene-5-[2-(2-oxo-2,5-dihydro-furan-3-yl)-ethyl]-decahydro-naphthalene-1-carboxylic acid methyl ester] as the molecule, how does the IC50 read?
A: 0.25 µM

Q: For `C=C1CCC2[C@](C)(CCC[C@]2(C)C(=O)OC)[C@H]1CCC1CCOC1=O` (stereo partly drawn) [(1S,4aR,5S)-1,4a-Dimethyl-6-methylene-5-[2-(2-oxo-tetrahydro-furan-3-yl)-ethyl]-decahydro-naphthalene-1-carboxylic acid methyl ester], which IC50 is on record?
A: 2 µM

Q: For `C=C1CCC2[C@](C)(CCC[C@]2(C)C(=O)OC)[C@H]1CCC1=CC(=O)OC1` (stereo partly drawn) [(1S,4aR,5S)-1,4a-Dimethyl-6-methylene-5-[2-(5-oxo-2,5-dihydro-furan-3-yl)-ethyl]-decahydro-naphthalene-1-carboxylic acid methyl ester], which IC50 is on record?
A: 6 µM

Q: For `C=C1CCC2[C@](C)(CCC[C@]2(C)C(=O)OC)[C@H]1CCc1ccoc1` (stereo partly drawn) [(1S,4aR,5S)-5-(2-Furan-3-yl-ethyl)-1,4a-dimethyl-6-methylene-decahydro-naphthalene-1-carboxylic acid methyl ester], which IC50 is on record?
A: > 1000 µM

Q: How did the IC50 turn out when `C=C1CCC2[C@](C)(CCC[C@]2(C)C(=O)OC)[C@H]1CC/C(=C/CO)CO` (stereo partly drawn) [(1S,4aR,5S)-5-((Z)-5-Hydroxy-3-hydroxymethyl-pent-3-enyl)-1,4a-dimethyl-6-methylene-decahydro-naphthalene-1-carboxylic acid methyl ester] was run?
A: 12 µM

Q: With `COC(=O)[C@@]1(C)CCC[C@@]2(C)C1CC[C@H](CO)[C@@H]2CCC1=CCOC1=O` (stereo partly drawn) [(1S,4aR,5S,6S)-6-Hydroxymethyl-1,4a-dimethyl-5-[2-(2-oxo-2,5-dihydro-furan-3-yl)-ethyl]-decahydro-naphthalene-1-carboxylic acid methyl ester] as the molecule, how does the IC50 read?
A: 1.6 µM

Q: How did the IC50 turn out when `COC(=O)[C@@]1(C)CCC[C@@]2(C)C1CCC(=O)[C@@H]2CCC1=CCOC1=O` (stereo partly drawn) [(1S,4aS,5R)-1,4a-Dimethyl-6-oxo-5-[2-(2-oxo-2,5-dihydro-furan-3-yl)-ethyl]-decahydro-naphthalene-1-carboxylic acid methyl ester] was run?
A: 0.26 µM

Q: Which IC50 does the source give for `COC(=O)[C@@]1(C)CCC[C@@]2(C)C1CCC(=O)[C@@H]2CCC1CCOC1=O` (stereo partly drawn) [(1S,4aS,5R)-1,4a-Dimethyl-6-oxo-5-[2-(2-oxo-tetrahydro-furan-3-yl)-ethyl]-decahydro-naphthalene-1-carboxylic acid methyl ester] here?
A: 2.6 µM

Q: For `COC(=O)[C@@]1(C)CCC[C@@]2(C)C1CC[C@](O)(CO)[C@@H]2CCC1=CCOC1=O` (stereo partly drawn) [(1S,4aS,5R,6R)-6-Hydroxy-6-hydroxymethyl-1,4a-dimethyl-5-[2-(2-oxo-2,5-dihydro-furan-3-yl)-ethyl]-decahydro-naphthalene-1-carboxylic acid methyl ester], which IC50 is on record?
A: > 1000 µM

Q: For `COC(=O)[C@@]1(C)CCC[C@@]2(C)C1CC[C@H](O)[C@@H]2CCC1=CCOC1=O` (stereo partly drawn) [(1S,4aS,5R,6S)-6-Hydroxy-1,4a-dimethyl-5-[2-(2-oxo-2,5-dihydro-furan-3-yl)-ethyl]-decahydro-naphthalene-1-carboxylic acid methyl ester], which IC50 is on record?
A: 2 µM

Q: `C=C1CCC2[C@@](C)(CO)CCC[C@]2(C)[C@H]1CC/C(=C/CO)CO` (stereo partly drawn) [(Z)-2-[2-((1S,5S,8aR)-5-Hydroxymethyl-5,8a-dimethyl-2-methylene-decahydro-naphthalen-1-yl)-ethyl]-but-2-ene-1,4-diol] was tested. Which IC50 did it give?
A: 21 µM

Q: For `COC(=O)[C@@]1(C)CCC[C@@]2(C)C1CC[C@]1(CO1)[C@@H]2CCC1=CCOC1=O` (stereo partly specified) [methyl 5,8a-dimethyl-1-[2-(2-oxo-2,5-dihydro-3-furanyl)ethyl]spiro[perhydronaphthalene-2,2'-(dihydrooxirane)]-5-carboxylate], which IC50 is on record?
A: 1 µM
